Source: PMC2772170 (Journal of medicinal chemistry, 2009)
Read-outs that look alike come from different tables or passages of the source.

What was measured:
[1] = target: T1, thioredoxin glutathione reductase (TGR) (Schistosoma mansoni, UniProt Q962Y6); format: biochemical
T1 sequence (Q962Y6 1-598): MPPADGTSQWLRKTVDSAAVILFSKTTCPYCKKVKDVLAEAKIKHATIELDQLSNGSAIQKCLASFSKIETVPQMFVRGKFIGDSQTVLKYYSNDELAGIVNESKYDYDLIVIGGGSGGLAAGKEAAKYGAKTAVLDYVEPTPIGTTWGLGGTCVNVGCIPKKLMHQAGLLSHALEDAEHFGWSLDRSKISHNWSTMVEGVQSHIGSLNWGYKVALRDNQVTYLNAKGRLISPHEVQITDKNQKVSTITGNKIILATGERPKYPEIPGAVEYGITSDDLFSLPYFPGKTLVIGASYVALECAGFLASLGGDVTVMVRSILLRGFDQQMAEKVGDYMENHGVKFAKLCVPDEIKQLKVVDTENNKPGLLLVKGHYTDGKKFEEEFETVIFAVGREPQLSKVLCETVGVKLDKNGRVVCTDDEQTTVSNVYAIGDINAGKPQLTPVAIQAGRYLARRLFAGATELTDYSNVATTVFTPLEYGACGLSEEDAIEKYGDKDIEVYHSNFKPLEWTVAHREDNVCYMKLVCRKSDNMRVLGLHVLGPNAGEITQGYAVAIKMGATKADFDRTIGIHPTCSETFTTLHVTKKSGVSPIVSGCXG

[2] = tested on: ex vivo worms in culture; experiment: Ex vivo parasite killing, visual examination of cultured worms; set-up: species or system Schistosoma
[3] = target: T2, TGR (Schistosoma mansoni, UniProt Q962Y6); format: biochemical; settings: with TGR; ABTS method, data in supporting information
T2 sequence (Q962Y6 1-598): T1 sequence (Q962Y6 1-598)

[4] = NO release on reaction with cysteine, chemiluminescent assay; settings: for NO donation on reaction with cysteine (in words): chemiluminescent assay
[5] = Microsomal stability; settings: human liver microsomes, 60 minutes at 37 °C
[6] = human, microsomes, 1 h
[7] = target: T1, thioredoxin glutathione reductase (TGR); settings: cited from earlier work
[8] = 10 μM compound, cultured worms, 4 hr
[9] = 10 μM compound, cultured worms, 48 hr
[10] = 10 μM compound, cultured worms, 24 hr

SMILES | Ex Vivo Parasite Killing 2 hr ([2]; 10 μM compound, cultured worms) | Ex Vivo Parasite Killing 4 hr [2, 8] | Ex Vivo Parasite Killing 8 hr ([2]; 10 μM compound, cultured worms) | Ex Vivo Parasite Killing 72 hr ([2]; 10 μM compound, cultured worms) | further results
N#Cc1nonc1-c1ccccc1 [Analogue 4] |  |  |  |  | TGR inhibition (in words) [1]: nor was either analogue active versus TGR; Ex vivo worm killing (in words) [2]: nor was either analogue active versus TGR or an effective ex vivo worm killing agent; NO release / NO donating ability (in words) [3]: no appreciable NO release with TGR
N#Cc1no[n+]([O-])c1-c1ccccc1 [Analogue 5] |  |  |  |  | TGR inhibition (in words) [1]: nor was either analogue active versus TGR; Ex vivo worm killing (in words) [2]: nor was either analogue active versus TGR or an effective ex vivo worm killing agent; NO release / NO donating ability (in words) [3]: no appreciable NO release with TGR
Cc1c(-c2ccccc2)no[n+]1[O-] [Analogue 6] |  |  |  |  | NO donation on reaction with cysteine (in words) [4]: nor was 6 capable of NO donation; NO release / NO donating ability (in words) [3]: inactive as a NO donor
[O-][n+]1onc(-c2ccccc2)c1CO [Analogue 7] |  |  |  |  | NO release / NO donating ability (in words) [3]: only a weak NO donor
O=Cc1c(-c2ccccc2)no[n+]1[O-] [Analogue 8] |  |  |  |  | NO release / NO donating ability (in words) [3]: only modest NO donating abilities
O=C(O)c1c(-c2ccccc2)no[n+]1[O-] [Analogue 9] |  |  |  |  | NO release / NO donating ability (in words) [3]: only modest NO donating abilities
N#Cc1c(-c2cccc([N+](=O)[O-])c2)no[n+]1[O-] [Analogue 11] | n.e. | n.e. | n.e. |  | Ex Vivo Parasite Killing 16 hr ([2]; 10 μM compound, cultured worms): sluggish
N#Cc1c(-c2cccc(C(F)(F)F)c2)no[n+]1[O-] [Analogue 12] | n.e. | n.e. |  | 100%D | Ex Vivo Parasite Killing 48 hr [2, 9]: 100%D
N#Cc1c(-c2ccc(F)c(Br)c2)no[n+]1[O-] [Analogue 13] | n.e. | n.e. | curling | 100%D | Ex Vivo Parasite Killing 24 hr [2, 10]: 50%D
N#Cc1c(-c2cccc(Br)c2)no[n+]1[O-] [Analogue 14] | n.e. | n.e. |  | 100%D | Ex Vivo Parasite Killing 24 hr [2, 10]: 100%D; Ex Vivo Parasite Killing 48 hr [2, 9]: 100%D
N#Cc1c(-c2cccc(Cl)c2)no[n+]1[O-] [Analogue 15] | n.e. | sluggish |  | 100%D | 
N#Cc1c(-c2ccc(Br)cc2)no[n+]1[O-] [Analogue 16] | n.e. | sluggish |  | 100%D | Ex Vivo Parasite Killing 24 hr [2, 10]: 100%D; Ex Vivo Parasite Killing 48 hr [2, 9]: 100%D; Microsomal stability, NADPH (+) ([5]; with NADPH): 10 % remaining; Microsomal stability, NADPH (−) ([5]; without NADPH): 67 % remaining
N#Cc1c(-c2ccc(Cl)cc2)no[n+]1[O-] [Analogue 17] | n.e. | n.e. | n.e. | 100%D | Ex Vivo Parasite Killing 16 hr ([2]; 10 μM compound, cultured worms): sluggish
N#Cc1c(-c2ccc(C(F)(F)F)cc2)no[n+]1[O-] [Analogue 18] | n.e. | n.e. |  | 100%D | 
N#Cc1c(-c2cccc(O)c2)no[n+]1[O-] [Analogue 19] | n.e. | n.e. |  | n.e. | Ex Vivo Parasite Killing 16 hr ([2]; 10 μM compound, cultured worms): n.e.; Ex Vivo Parasite Killing 24 hr [2, 10]: n.e.; Ex Vivo Parasite Killing 48 hr [2, 9]: n.e.
N#Cc1c(-c2ccc(F)cc2)no[n+]1[O-] [Analogue 20] | n.e. | n.e. |  | 100%D | Ex Vivo Parasite Killing 48 hr [2, 9]: 100%D
COc1ccccc1-c1no[n+]([O-])c1C#N [Analogue 21] | n.e. | n.e. |  |  | 
COc1cc(-c2no[n+]([O-])c2C#N)cc(OC)c1OC [Analogue 22] | n.e. | n.e. |  |  | Ex Vivo Parasite Killing 16 hr ([2]; 10 μM compound, cultured worms): sluggish
COc1cccc(-c2no[n+]([O-])c2C#N)c1 [Analogue 23] | n.e. | n.e. | n.e. |  | Ex Vivo Parasite Killing 16 hr ([2]; 10 μM compound, cultured worms): n.e.
COc1ccc(-c2no[n+]([O-])c2C#N)cc1 [Analogue 24] | n.e. | n.e. | n.e. | 100%D | 
Cc1ccc(-c2no[n+]([O-])c2C#N)cc1 [Analogue 25] | n.e. | n.e. | n.e. |  | 
N#Cc1c(-c2ccc(-c3ccccc3)cc2)no[n+]1[O-] [Analogue 26] | n.e. | n.e. | sluggish |  | Ex Vivo Parasite Killing 16 hr ([2]; 10 μM compound, cultured worms): sluggish; Ex Vivo Parasite Killing 24 hr [2, 10]: 20%D
N#Cc1c(-c2ccc(O)cc2)no[n+]1[O-] [Analogue 27] | n.e. | n.e. | sluggish | 100%D | 
N#Cc1c(-c2ccco2)no[n+]1[O-] [Analogue 28] | n.e. | n.e. |  | 100%D | Ex Vivo Parasite Killing 48 hr [2, 9]: 100%D; NO release / NO donating ability (in words) [3]: good NO release profiles
N#Cc1c(C(=O)c2cccs2)no[n+]1[O-] [Analogue 30] | n.e. | n.e. | n.e. | n.e. | Ex Vivo Parasite Killing 16 hr ([2]; 10 μM compound, cultured worms): n.e.; Ex Vivo Parasite Killing 24 hr [2, 10]: n.e.; Ex Vivo Parasite Killing 48 hr [2, 9]: n.e.; NO donation on reaction with cysteine (in words) [4]: capable of releasing NO
N#Cc1c(-c2cccc(-c3no[n+]([O-])c3C#N)c2)no[n+]1[O-] [Analogue 31] |  |  |  |  | Ex Vivo Parasite Killing 4 hr [2]: curling; Ex Vivo Parasite Killing 24 hr [2]: 100%D; Ex Vivo Parasite Killing 48 hr [2]: 100%D
N#Cc1c(-c2cc(F)cc(-c3no[n+]([O-])c3C#N)c2)no[n+]1[O-] [Analogue 33] |  |  |  |  | Ex Vivo Parasite Killing 48 hr [2]: 100%D; NO equivalents produced per equivalent of reagent [4]: 1.55 molar equivalents; Microsomal stability, NADPH (+) [6]: 20/51 % remaining; Microsomal stability, NADPH (−) [6]: 20/51 % remaining
CC(=O)OC[C@H]1O[C@@H]([S-])[C@H](OC(C)=O)[C@@H](OC(C)=O)[C@@H]1OC(C)=O.CCP(CC)CC.[Au+] [auranofin] |  |  |  |  | TGR inhibition (in words) [7]: potent inhibitor of TGR
